Laboratory results published in PubChem BioAssay (NCI).
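GI50: concentration for 50% inhibition of growth. Definition used: TGI = concentration required for complete inhibition of growth.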

Legend:
Test in all cases: growth of human tumour cells (NCI), 384-well format
IGROV1 ovarian = system: IGROV1 ovarian
NCI-H522 lung = system: NCI-H522 lung
SK-MEL-28 melanoma = system: SK-MEL-28 melanoma
HT29 colon = system: HT29 colon
A549 NSCLC = system: A549 NSCLC
MOLT-4 leukemia = system: MOLT-4 leukemia
T-47D breast = system: T-47D breast
RPMI-8226 leukemia = system: RPMI-8226 leukemia
NCI-H460 NSCLC = system: NCI-H460 NSCLC
SK-OV-3 ovarian = system: SK-OV-3 ovarian
MDA-MB-468 breast = system: MDA-MB-468 breast
K-562 leukemia = system: K-562 leukemia
TK-10 renal = system: TK-10 renal
M14 melanoma = system: M14 melanoma
HOP-62 NSCLC = system: HOP-62 NSCLC
SW-620 colon = system: SW-620 colon
RXF 393 renal = system: RXF 393 renal
CAKI-1 renal = system: CAKI-1 renal
U251 glioblastoma = system: U251 glioblastoma
OVCAR-4 ovarian = system: OVCAR-4 ovarian
HOP-92 NSCLC = system: HOP-92 NSCLC
MALME-3M melanoma = system: MALME-3M melanoma
UO-31 renal = system: UO-31 renal
NCI-H226 lung = system: NCI-H226 lung
NCI-H23 lung = system: NCI-H23 lung
DU-145 prostate = system: DU-145 prostate
OVCAR-5 ovarian = system: OVCAR-5 ovarian
MDA-MB-231 breast = system: MDA-MB-231 breast
NCI-H322M lung = system: NCI-H322M lung
ACHN renal = system: ACHN renal
HL-60(TB) leukemia = system: HL-60(TB) leukemia
SF-539 CNS = system: SF-539 CNS
SF-295 CNS = system: SF-295 CNS
SK-MEL-2 melanoma = system: SK-MEL-2 melanoma
BT-549 breast = system: BT-549 breast
UACC-62 melanoma = system: UACC-62 melanoma
UACC-257 melanoma = system: UACC-257 melanoma
LOX IMVI melanoma = system: LOX IMVI melanoma
786-0 renal = system: 786-0 renal
SR leukemia = system: SR leukemia
HCT-15 colon = system: HCT-15 colon
OVCAR-8 ovarian = system: OVCAR-8 ovarian
NCI/ADR-RES ovarian = system: NCI/ADR-RES ovarian
OVCAR-3 ovarian = system: OVCAR-3 ovarian
KM12 colon = system: KM12 colon
MCF7 breast = system: MCF7 breast
PC-3 prostate = system: PC-3 prostate
SN12C renal = system: SN12C renal
CCRF-CEM leukemia = system: CCRF-CEM leukemia
SK-MEL-5 melanoma = system: SK-MEL-5 melanoma
A498 renal = system: A498 renal
MDA-MB-435 melanoma = system: MDA-MB-435 melanoma
COLO 205 colon = system: COLO 205 colon

Molecule `CN(C(=O)c1ccc(C(F)(F)F)cc1)c1ccc(Oc2ccc3c(c2)cc(C(=O)N2CCN(Cc4ccc(OC(F)F)cc4)CC2)n3C)nc1` has a GI50 (IGROV1 ovarian) of 0.0201 µM, a TGI (IGROV1 ovarian) greater than 100 µM and a GI50 (NCI-H522 lung) of less than 0.01 µM. The TGI (NCI-H522 lung) was greater than 100 µM, the GI50 (SK-MEL-28 melanoma) was greater than 100 µM and the TGI (SK-MEL-28 melanoma) was greater than 100 µM. It also gave a GI50 (HT29 colon) greater than 100 µM, a TGI (HT29 colon) greater than 100 µM and a GI50 (A549 NSCLC) of less than 0.01 µM. For the same molecule, the TGI (A549 NSCLC) was greater than 100 µM, the GI50 (MOLT-4 leukemia) was less than 0.01 µM and the TGI (MOLT-4 leukemia) was 1.42 µM. It also gave a GI50 (T-47D breast) of less than 0.01 µM, a TGI (T-47D breast) of 6.89 µM and a GI50 (RPMI-8226 leukemia) of less than 0.01 µM. The TGI (RPMI-8226 leukemia) was less than 0.01 µM, the GI50 (NCI-H460 NSCLC) was less than 0.01 µM and the TGI (NCI-H460 NSCLC) was less than 0.01 µM. For the same molecule, the GI50 (SK-OV-3 ovarian) was less than 0.01 µM, the TGI (SK-OV-3 ovarian) was greater than 100 µM and the GI50 (MDA-MB-468 breast) was less than 0.01 µM. The TGI (MDA-MB-468 breast) was less than 0.01 µM, the GI50 (K-562 leukemia) was less than 0.01 µM and the TGI (K-562 leukemia) was greater than 100 µM. For the same molecule, the GI50 (TK-10 renal) was 2.97 µM, the TGI (TK-10 renal) was greater than 100 µM and the GI50 (M14 melanoma) was 6.53 µM. For the same molecule, the TGI (M14 melanoma) was greater than 100 µM, the GI50 (HOP-62 NSCLC) was less than 0.01 µM and the TGI (HOP-62 NSCLC) was greater than 100 µM. It also gave a GI50 (SW-620 colon) of 8.11 µM, a TGI (SW-620 colon) greater than 100 µM and a GI50 (RXF 393 renal) of less than 0.01 µM. For the same molecule, the TGI (RXF 393 renal) was less than 0.01 µM, the GI50 (CAKI-1 renal) was greater than 100 µM and the TGI (CAKI-1 renal) was greater than 100 µM. For the same molecule, the GI50 (U251 glioblastoma) was less than 0.01 µM, the TGI (U251 glioblastoma) was greater than 100 µM and the GI50 (OVCAR-4 ovarian) was less than 0.01 µM. It also gave a TGI (OVCAR-4 ovarian) greater than 100 µM, a GI50 (HOP-92 NSCLC) of 0.864 µM and a TGI (HOP-92 NSCLC) greater than 100 µM. For the same molecule, the GI50 (MALME-3M melanoma) was greater than 100 µM, the TGI (MALME-3M melanoma) was greater than 100 µM and the GI50 (UO-31 renal) was greater than 100 µM. The TGI (UO-31 renal) was greater than 100 µM, the GI50 (NCI-H226 lung) was 0.431 µM and the TGI (NCI-H226 lung) was greater than 100 µM. The GI50 (NCI-H23 lung) was less than 0.01 µM, the TGI (NCI-H23 lung) was less than 0.01 µM and the GI50 (DU-145 prostate) was greater than 100 µM. For the same molecule, the TGI (DU-145 prostate) was greater than 100 µM, the GI50 (OVCAR-5 ovarian) was greater than 100 µM and the TGI (OVCAR-5 ovarian) was greater than 100 µM. For the same molecule, the GI50 (MDA-MB-231 breast) was less than 0.01 µM, the TGI (MDA-MB-231 breast) was greater than 100 µM and the GI50 (NCI-H322M lung) was less than 0.01 µM. The TGI (NCI-H322M lung) was greater than 100 µM, the GI50 (ACHN renal) was greater than 100 µM and the TGI (ACHN renal) was greater than 100 µM. The GI50 (HL-60(TB) leukemia) was 1.01 µM, the TGI (HL-60(TB) leukemia) was 2.56 µM and the GI50 (SF-539 CNS) was greater than 100 µM. For the same molecule, the TGI (SF-539 CNS) was greater than 100 µM, the GI50 (SF-295 CNS) was 0.0107 µM and the TGI (SF-295 CNS) was greater than 100 µM. It also gave a GI50 (SK-MEL-2 melanoma) greater than 100 µM, a TGI (SK-MEL-2 melanoma) greater than 100 µM and a GI50 (BT-549 breast) of 1.27 µM. The TGI (BT-549 breast) was greater than 100 µM, the GI50 (UACC-62 melanoma) was greater than 100 µM and the TGI (UACC-62 melanoma) was greater than 100 µM. The GI50 (UACC-257 melanoma) was less than 0.01 µM, the TGI (UACC-257 melanoma) was 2.84 µM and the GI50 (LOX IMVI melanoma) was less than 0.01 µM. It also gave a TGI (LOX IMVI melanoma) greater than 100 µM, a GI50 ([…]-0 renal) greater than 100 µM and a TGI (786-0 renal) greater than 100 µM. For the same molecule, the GI50 (SR leukemia) was less than 0.01 µM, the TGI (SR leukemia) was less than 0.01 µM and the GI50 (HCT-15 colon) was 6.41 µM. It also gave a TGI (HCT-15 colon) greater than 100 µM, a GI50 (OVCAR-8 ovarian) of less than 0.01 µM and a TGI (OVCAR-8 ovarian) greater than 100 µM. The GI50 (NCI/ADR-RES ovarian) was less than 0.01 µM, the TGI (NCI/ADR-RES ovarian) was 0.0671 µM and the GI50 (OVCAR-3 ovarian) was 3.02 µM. For the same molecule, the TGI (OVCAR-3 ovarian) was greater than 100 µM, the GI50 (KM12 colon) was greater than 100 µM and the TGI (KM12 colon) was greater than 100 µM. For the same molecule, the GI50 (MCF7 breast) was 0.136 µM, the TGI (MCF7 breast) was greater than 100 µM and the GI50 (PC-3 prostate) was 3.48 µM. It also gave a TGI (PC-3 prostate) greater than 100 µM, a GI50 (SN12C renal) greater than 100 µM and a TGI (SN12C renal) greater than 100 µM. The GI50 (CCRF-CEM leukemia) was less than 0.01 µM, the TGI (CCRF-CEM leukemia) was 1.04 µM and the GI50 (SK-MEL-5 melanoma) was less than 0.01 µM. The TGI (SK-MEL-5 melanoma) was 0.95 µM, the GI50 (A498 renal) was less than 0.01 µM and the TGI (A498 renal) was 0.0209 µM. For the same molecule, the GI50 (MDA-MB-435 melanoma) was greater than 100 µM, the TGI (MDA-MB-435 melanoma) was greater than 100 µM and the GI50 (COLO 205 colon) was greater than 100 µM. It also gave a TGI (COLO 205 colon) greater than 100 µM.
